Experimental data as given in US20220298213A1, “IN VIVO ENGINEERED CEREBLON PROTEIN” (Vividion Therapeutics, Inc., priority 2018, published 2022).
Read-outs that look alike come from different tables or passages of the source. Blank lines part the entries; values can stand above or below the compound they belong to.

Key:
Format in all cases: binding
CRBN Cys287 = molecular target: T1, CRBN Cys287 (Homo sapiens, UniProt Q96SW2); assay: Inhibition of iodoacetamide probe labeling of CRBN cysteines, cell lysate (Table 3A); settings: for inhibition at 7.8 µM: 7.8 micromolar
T1 construct: endogenous in cells
T1 sequence (Q96SW2 whole entry): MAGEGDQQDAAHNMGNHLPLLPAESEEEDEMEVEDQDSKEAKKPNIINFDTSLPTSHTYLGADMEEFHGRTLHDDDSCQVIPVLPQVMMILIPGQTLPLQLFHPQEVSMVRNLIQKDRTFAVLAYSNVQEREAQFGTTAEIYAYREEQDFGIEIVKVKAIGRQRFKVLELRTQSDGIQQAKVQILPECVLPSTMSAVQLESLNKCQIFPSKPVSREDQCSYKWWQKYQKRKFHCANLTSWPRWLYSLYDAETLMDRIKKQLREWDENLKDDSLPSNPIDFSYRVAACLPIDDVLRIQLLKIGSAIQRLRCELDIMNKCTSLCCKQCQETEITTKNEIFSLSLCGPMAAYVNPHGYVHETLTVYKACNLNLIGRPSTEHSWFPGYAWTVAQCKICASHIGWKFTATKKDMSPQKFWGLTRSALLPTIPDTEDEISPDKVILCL
Protocol: (§1) “X@Y” means that x % inhibition of iodoacetamide probe labeling was observed by treatment of cell lysate with the give compound in each row of the table for 1 h at a concentration of y micromolar. There was consistently high inhibition at C318 in addition to C287, which can be attributed to an allosteric inhibition.

CRBN Cys318 = molecular target: T2, CRBN Cys318 (Homo sapiens, UniProt Q96SW2); assay: as above
T2 construct: endogenous in cells
T2 sequence (Q96SW2 whole entry): as above
Protocol: as §1

CRBN_C287 = molecular target: T3, CRBN_C287 (Homo sapiens, UniProt Q96SW2); assay: CRBN C287 inhibition, probe labeling in lysate (Example 42); settings: for IC50: TE50, CRBN_C287, lysate 1 h
T3 construct: endogenous in cells; host or cells: cell lysate
T3 sequence (Q96SW2 whole entry): as above
Protocol: The following 96-well sample prep protocol was used for sample preparation.
Cells were resuspended in cold PBS on ice and sonicated with a probe sonicator to achieve lysis. 200 μL of lysate containing 5 mg/ml proteome was treated with 2 μL of 100× compound stock in a 2-mL deep-well plate. The treated lysate was subsequently incubate at 25° C. for 1 hr with shaking at 600 rpm. The treated lysate was further incubated with 2 μL of 10 mM desthiobiotin iodoacetamide probe at 25° C. for 1 hr with shaking at 600 rpm. […] 1.7 mL ice-cold acetone was added to each well and incubated at −20° C. for 2 hr, followed by max speed (4200 rpm) spin for 45 min. Acetone was then decanted and the plates were blotted to remove acetone. The plates were then dried in open air for 20 minutes. After drying, the plates were then covered with foil seal and stored at −80° C. overnight.
The next day, samples were re-suspended in 90 μL of solution of 9M urea, 50 mM ammonium bicarbonate and 10 mM DTT by incubating at 65° C. for 20 min with shaking at 1500 rpm. […] The samples were then incubated at 37° C. for 30 min with shaking at 600 rpm.
ZEBA desalting plates were equilibrated 4 times using 250 μL of 2M urea, 50 mM ammonium bicarbonate solution followed by centrifugation at 1500 rpm for 2 minutes. After equilibration was complete, samples were applied to ZEBA desalting plate and spin at 1500 rpm for 2 min on top of 1 mL 96-well deep-well collection plate to buffer exchange samples. 4 μL of solution containing 25 mM CaCl2 and 0.25 mg/mL trypsin was added to the plate and the plate was then incubated at 37° C. for 2 hrs with shaking at 600 rpm. 300 μL of solution containing 5% high-capacity streptavidin agarose slurry in 25 mM Tris-HCl pH 7.5, 150 mM NaCl, and 0.1% NP-40 then added. The plate was incubated at 25° C. for 2 hrs with shaking at 600 rpm. Samples were transferred to 25 μm filter plate and spin at 1000 rpm for 2 min. Samples were then washed 3 times with 0.75 mL of wash buffer (25 mM Tris-HCl pH 7.5, 150 mM NaCl, and 0.1% NP-40) followed by washing 3 times with 0.75 mL PBS, and then 4 times with 0.75 mL water. After the washing step, samples were eluted into polypropylene 96-well plate by addition of 250 μL of 50% MeCN/water, 0.1% formic acid and allowed to gravity drip for 10 min, followed by centrifugation at 1000 rpm for 2 min. Speedvac was used to dry the plates at about 45° C. for […]. Then the plates were covered with foil seal and stored at −20° C.
Then add 30 μL of 0.1% formic acid solution was added and the plate was covered and incubated at 42° C. for 10 minutes with shaking at 600 rpm. Seal plate was then sealed with a 96-well silicon mat for analysis.

CRBN Cys366 = molecular target: T4, CRBN Cys366 (Homo sapiens, UniProt Q96SW2); assay: Inhibition of iodoacetamide probe labeling of CRBN cysteines, cell lysate (Table 3A); settings: read-out: % inhibition of iodoacetamide probe labeling, Cys366
T4 construct: endogenous in cells
T4 sequence (Q96SW2 whole entry): as above
Protocol: as §1

CRBN Cys205 = molecular target: T5, CRBN Cys205 (Homo sapiens, UniProt Q96SW2); assay: as above; settings: read-out: % inhibition of iodoacetamide probe labeling, Cys205
T5 construct: endogenous in cells
T5 sequence (Q96SW2 whole entry): as above
Protocol: as §1

CRBN Cys188 = molecular target: T6, CRBN Cys188 (Homo sapiens, UniProt Q96SW2); assay: as above; settings: cell lysate, 1 h
T6 construct: endogenous in cells
T6 sequence (Q96SW2 whole entry): as above
Protocol: as §1

CRBN Cys234 = molecular target: T7, CRBN Cys234 (Homo sapiens, UniProt Q96SW2); assay: as above; settings: read-out: % inhibition of iodoacetamide probe labeling, Cys234
T7 construct: endogenous in cells
T7 sequence (Q96SW2 whole entry): as above
Protocol: as §1

CRBN Cys219 = molecular target: T8, CRBN Cys219 (Homo sapiens, UniProt Q96SW2); assay: as above; settings: read-out: % inhibition of iodoacetamide probe labeling, Cys219
T8 construct: endogenous in cells
T8 sequence (Q96SW2 whole entry): as above
Protocol: as §1

[1] = 50 micromolar, cell lysate, 1 h
[2] = read-out: % inhibition of iodoacetamide probe labeling, Cys287
[3] = 500 micromolar, cell lysate, 1 h, read-out: % inhibition of iodoacetamide probe labeling, Cys287
[4] = 500 micromolar, cell lysate, 1 h
[5] = 31.2 micromolar, cell lysate, 1 h, read-out: % inhibition of iodoacetamide probe labeling, Cys287

inhibition at 5 µM (CRBN Cys287; 5 micromolar, cell lysate, 1 h): 40%
inhibition at 50 µM (CRBN Cys287; [1]): 90%
inhibition at 500 µM (CRBN Cys287; [2]): 97%
inhibition at 5 µM (CRBN Cys318; 5 micromolar, cell lysate, 1 h): 43%
inhibition at 50 µM (CRBN Cys318; [1]): 86%
inhibition at 500 µM (CRBN Cys318; read-out: % inhibition of iodoacetamide probe labeling, Cys318, 500 micromolar, cell lysate, 1 h): 95%
Compound: COc1ccccc1-c1cc(C#N)cc(OC2CCN(C(=O)/C=C/CN(C)C)CC2)c1 [Al]

IC50 (CRBN_C287): 7500 nM
Compound: C=CC(=O)N1CCC(Oc2cc(-c3ccccc3OC)cnn2)CC1 [Example 27, 1-(4-((5-(2-methoxyphenyl)pyridazin-3-yl)oxy)piperidin-1-yl)prop-2-en-1-one]

IC50 (CRBN_C287): 80000 nM
Compound: C=CC(=O)N1CCC(Oc2cc(-c3ccccc3OC)cc(C#N)n2)CC1 [Example 28, 6-((1-acryloylpiperidin-4-yl)oxy)-4-(2-methoxyphenyl)picolinonitrile]

IC50 (CRBN_C287): 1250 nM
Compound: C=CC(=O)N1CC[C@H](Oc2cc(C#N)cc(-c3ccccc3OC)c2)[C@@H](F)C1 [Example 29, 5-(((3S,4S)-1-acryloyl-3-fluoropiperidin-4-yl)oxy)-2′-methoxy-[1,1′-biphenyl]-3-carbonitrile]

IC50 (CRBN_C287): 400 nM
Compound: C=CC(=O)N1CC[C@@H](Oc2cc(C#N)cc(-c3ccccc3OC)c2)[C@H](F)C1 [Example 30, 5-(((3R,4R)-1-acryloyl-3-fluoropiperidin-4-yl)oxy)-2′-methoxy-[1,1′-biphenyl]-3-carbonitrile]

IC50 (CRBN_C287): 290 nM
Compound: C=CC(=O)N1CC[C@H](Oc2cc(C#N)cc(-c3ccccc3OC)c2)[C@H](F)C1 [Example 31, 5-(((3R,4S)-1-acryloyl-3-fluoropiperidin-4-yl)oxy)-2′-methoxy-[1,1′-biphenyl]-3-carbonitrile]

IC50 (CRBN_C287): 1490 nM
Compound: C=CC(=O)N1CC[C@@H](Oc2cc(C#N)cc(-c3ccccc3OC)c2)[C@@H](F)C1 [Example 32, 5-(((3S,4R)-1-acryloyl-3-fluoropiperidin-4-yl)oxy)-2′-methoxy-[1,1′-biphenyl]-3-carbonitrile]

IC50 (CRBN_C287): 120 nM
Compound: C=CC(=O)N1CC(Oc2cc(C#N)cc(-c3ccccc3OC)c2)C1 [Example 36, 5-((1-acryloylazetidin-3-yl)oxy)-2′-methoxy-[1,1′-biphenyl]-3-carbonitrile]

IC50 (CRBN_C287): 31000 nM
Compound: C=CC(=O)N1CCC(Sc2cccc(-c3ccccc3OC)c2)CC1 [Example 37, 1-(4-((2′-methoxy-[1,1′-biphenyl]-3-yl)thio)piperidin-1-yl)prop-2-en-1-one]

Compound: C=CC(=O)N1C2CCC1CC(Oc1cc(C#N)cc(-c3ccccc3OC)c1)C2 [Example 38, 5-(((1R,3s,5S)-8-acryloyl-8-azabicyclo[3.2.1]octan-3-yl)oxy)-2′-methoxy-[1,1′-biphenyl]-3-carbonitrile]
inhibition at 500 µM (CRBN_C287; 500 uM, lysate, 1 h, read-out: % inh @ 500 uM (CRBN_C287, lysate 1 h)): 78%

Compound: C=CC(=O)N1[C@@H]2CC[C@H]1C[C@H](Oc1cc(C(N)=O)cc(-c3ccccc3OC)c1)C2 [Example 39, 5-(((1R,3s,5S)-8-acryloyl-8-azabicyclo[3.2.1]octan-3-yl)oxy)-2′-methoxy-[1,1′-biphenyl]-3-carboxamide]
IC50 (CRBN_C287): 53000 nM

IC50 (CRBN_C287): 2570 nM
Compound: C#CCOCCOCCOCCOc1ccc(OC)c(-c2cc(C#N)cc(OC3CCN(C(=O)C=C)CC3)c2)c1 [Example 40, 3-[2-methoxy-5-[2-[2-(2-prop-2-ynoxyethoxy)ethoxy]ethoxy]phenyl]-5-[(1-prop-2-enoyl-4-piperidyl)oxy]benzonitrile]

IC50 (CRBN_C287): 31000 nM
Compound: C=CC(=O)N1CCC(Oc2cc(OC(F)(F)F)cc(-c3ccccc3OC)c2)CC1 [Example 41, 1-(4-((2′-methoxy-5-(trifluoromethoxy)-[1,1′-biphenyl]-3-yl)oxy)piperidin-1-yl)prop-2-en-1-one]

inhibition at 125 µM (CRBN Cys366): -6%
inhibition at 7.8 µM (CRBN Cys287; cell lysate, 1 h): 12%
inhibition at 500 µM (CRBN Cys287; [3]): 96%
inhibition at 31.2 µM (CRBN Cys287; [2]): 51%
inhibition at 125 µM (CRBN Cys287; [2]): 80%
inhibition at 7.8 µM (CRBN Cys318; 7.8 micromolar, cell lysate, 1 h): 21%
inhibition at 500 µM (CRBN Cys318; 500 micromolar, cell lysate, 1 h, read-out: % inhibition of iodoacetamide probe labeling, Cys318): 85%
inhibition at 31.2 µM (CRBN Cys318; read-out: % inhibition of iodoacetamide probe labeling, Cys318, 31.2 micromolar, cell lysate, 1 h): 35%
inhibition at 125 µM (CRBN Cys318; read-out: % inhibition of iodoacetamide probe labeling, Cys318, 125 micromolar, cell lysate, 1 h): 64%
inhibition at 500 µM (CRBN Cys205; [4]): 15%
inhibition at 31.2 µM (CRBN Cys205): 7%
inhibition at 125 µM (CRBN Cys205): 21%
inhibition at 125 µM (CRBN Cys188; 125 micromolar): 5%
inhibition at 500 µM (CRBN Cys188; 500 micromolar): 3%
inhibition at 500 µM (CRBN Cys234; [4]): 31%
inhibition at 31.2 µM (CRBN Cys234): 6%
inhibition at 125 µM (CRBN Cys234): 19%
inhibition at 500 µM (CRBN Cys219; [4]): 40%
inhibition at 31.2 µM (CRBN Cys219): 19%
inhibition at 125 µM (CRBN Cys219): 8%
Compound: C=CC(=O)N1CC(Oc2ccc(Cl)cc2)C1 [Example A3]

inhibition at 7.8 µM (CRBN Cys287; cell lysate, 1 h): 96%
inhibition at 31.2 µM (CRBN Cys287; [5]): 97%
inhibition at 500 µM (CRBN Cys287; [3]): 99%
inhibition at 125 µM (CRBN Cys287; [2]): 99%
Compound: COc1ccccc1-c1cc(C#N)cc(OC2CCN(C(=O)/C(C#N)=C/C(C)(C)C)CC2)c1 [Example A4]

inhibition at 31.2 µM (CRBN Cys287; [5]): 82%
inhibition at 125 µM (CRBN Cys287; 125 micromolar, cell lysate, 1 h, read-out: % inhibition of iodoacetamide probe labeling, Cys287): 94%
inhibition at 500 µM (CRBN Cys287; [3]): 95%
inhibition at 0.49 µM (CRBN Cys287; [2]): 62%
inhibition at 2 µM (CRBN Cys287; [2]): 77%
Compound: CC(/C=C(\C#N)C(=O)N1CCC(Oc2cccc(C#N)c2)CC1)c1ccccc1 (centres unmarked) [Example A6]
